Source: ChEMBL document CHEMBL1201862, “PubChem BioAssay data set” (2004)
Active and inactive are the calls of the source.

Legend:
[1] = molecular target: Intestinal-type alkaline phosphatase (Homo sapiens, UniProt P09923); assay: inhibition of human intestinal alkaline phosphatase – biochemical, dose response (AID 488876); type: functional
[2] = molecular target: Intestinal-type alkaline phosphatase (Mus musculus, UniProt P24822); assay: PubChem AID 488785; type: functional
Insulin-degrading enzyme [3] = molecular target: T1, Insulin-degrading enzyme (Homo sapiens, UniProt P14735); assay: activators of endogenous IDE in HEK cells, dose response, cell-based, fluorescence polarization (AID 588439); type: functional
T1 sequence (P14735 whole entry): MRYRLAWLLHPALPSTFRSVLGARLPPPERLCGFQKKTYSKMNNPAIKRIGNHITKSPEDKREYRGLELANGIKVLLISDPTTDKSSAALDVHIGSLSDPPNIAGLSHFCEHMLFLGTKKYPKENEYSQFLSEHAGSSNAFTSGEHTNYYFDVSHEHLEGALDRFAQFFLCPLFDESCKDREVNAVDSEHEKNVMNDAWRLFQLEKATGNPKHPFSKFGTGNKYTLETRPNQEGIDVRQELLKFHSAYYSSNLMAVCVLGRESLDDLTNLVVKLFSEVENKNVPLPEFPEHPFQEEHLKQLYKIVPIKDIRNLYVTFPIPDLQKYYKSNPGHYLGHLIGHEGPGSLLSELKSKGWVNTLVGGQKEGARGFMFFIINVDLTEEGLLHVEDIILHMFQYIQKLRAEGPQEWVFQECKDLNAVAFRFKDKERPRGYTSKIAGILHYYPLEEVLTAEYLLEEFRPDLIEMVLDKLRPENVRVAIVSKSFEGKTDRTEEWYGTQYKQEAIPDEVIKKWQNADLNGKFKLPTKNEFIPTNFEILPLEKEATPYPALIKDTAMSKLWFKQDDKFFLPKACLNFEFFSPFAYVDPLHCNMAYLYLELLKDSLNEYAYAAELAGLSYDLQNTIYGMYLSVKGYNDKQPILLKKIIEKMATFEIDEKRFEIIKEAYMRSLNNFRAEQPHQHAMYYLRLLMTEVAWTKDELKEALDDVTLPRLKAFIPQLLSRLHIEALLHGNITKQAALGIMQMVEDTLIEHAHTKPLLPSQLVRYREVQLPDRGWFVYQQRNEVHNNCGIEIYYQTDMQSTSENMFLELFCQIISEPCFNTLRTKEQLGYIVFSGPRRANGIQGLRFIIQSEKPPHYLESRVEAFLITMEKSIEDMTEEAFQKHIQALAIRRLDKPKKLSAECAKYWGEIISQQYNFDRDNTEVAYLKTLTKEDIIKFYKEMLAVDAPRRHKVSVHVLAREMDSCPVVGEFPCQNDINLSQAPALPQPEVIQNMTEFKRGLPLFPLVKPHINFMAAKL

HEK293 [4] = assay: optical interference in Abeta FP readout, dose response, artefact control for IDE activator project, biochemical, fluorescence polarization (AID 588442); type: functional, cell-based; settings: Homo sapiens
[5] = molecular target: T2, Alkaline phosphatase, tissue-nonspecific isozyme (Homo sapiens, UniProt P05186); assay: TNAP enzyme inhibition by screening hits, dose response, selectivity assay for mouse IAP inhibitor project, biochemical, human TNAP, uHTS hits (AID 488906); type: functional
T2 sequence (P05186 whole entry): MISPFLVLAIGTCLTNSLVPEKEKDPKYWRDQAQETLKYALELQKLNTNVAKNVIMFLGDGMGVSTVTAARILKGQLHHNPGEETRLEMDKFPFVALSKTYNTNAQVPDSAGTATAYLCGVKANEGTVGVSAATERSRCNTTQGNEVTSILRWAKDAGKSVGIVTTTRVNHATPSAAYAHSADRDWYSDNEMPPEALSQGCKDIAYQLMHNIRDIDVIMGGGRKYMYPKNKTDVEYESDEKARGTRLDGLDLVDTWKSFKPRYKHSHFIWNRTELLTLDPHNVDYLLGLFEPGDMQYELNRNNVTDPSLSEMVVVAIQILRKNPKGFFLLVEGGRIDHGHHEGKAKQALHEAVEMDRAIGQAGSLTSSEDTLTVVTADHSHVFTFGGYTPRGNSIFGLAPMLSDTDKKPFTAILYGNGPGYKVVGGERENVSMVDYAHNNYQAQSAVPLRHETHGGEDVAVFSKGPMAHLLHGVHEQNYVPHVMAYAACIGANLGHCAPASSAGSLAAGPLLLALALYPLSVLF

Insulin-degrading enzyme [6] = molecular target: T1, Insulin-degrading enzyme; assay: activators of recombinant IDE enzyme, dose response, counter-screen for IDE activator project, biochemical, fluorescence polarization (AID 588681)
Bcl-2-related protein A1 = molecular target: T3, Bcl-2-related protein A1 (Mus musculus, UniProt Q07440); type: functional;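 also: confirmatory dose–response counterscreen on Bfl-1, used to check hits from a UBC13 polyubiquitin inhibitor campaign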
T3 sequence (Q07440 whole entry): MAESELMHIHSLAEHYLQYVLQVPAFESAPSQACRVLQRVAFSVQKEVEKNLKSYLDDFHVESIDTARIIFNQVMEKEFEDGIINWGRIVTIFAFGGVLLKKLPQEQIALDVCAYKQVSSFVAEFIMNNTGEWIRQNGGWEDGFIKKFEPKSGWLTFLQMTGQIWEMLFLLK

[7] = molecular target: T4, Ubiquitin-conjugating enzyme E2 N (Homo sapiens, UniProt P61088); type: functional
T4 sequence (P61088 whole entry): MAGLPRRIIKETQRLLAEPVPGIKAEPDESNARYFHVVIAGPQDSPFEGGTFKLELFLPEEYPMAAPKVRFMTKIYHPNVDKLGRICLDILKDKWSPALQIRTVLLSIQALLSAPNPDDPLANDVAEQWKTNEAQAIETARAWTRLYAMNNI

HEK293 [8] = assay: HEK cell cytotoxicity by LDH release, dose response, cytotoxicity control for IDE activator project, fluorescence, HEK cells (AID 588440); type: functional, cell-based; settings: Homo sapiens;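 also: cytotoxicity by LDH release measuring loss of membrane integrity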
[9] = molecular target: T4, Ubiquitin-conjugating enzyme E2 N; type: functional; remark: listed apart in the source
[10] = ARNT/TACC3 interaction disruptors, potency, confirmation, biochemical, AlphaScreen, cherry-picked samples (AID 651703); type: functional, Homo sapiens;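 also: His-tagged ARNT PAS-B domain paired with GST-TACC3 E629A dimer coactivator fragment; potency of inhibitors that break up the complex and lower AlphaScreen signal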
cells = type: functional
[11] = molecular target: Potassium voltage-gated channel subfamily KQT member 2 (Rattus norvegicus, UniProt O88943); assay: KCNQ2 potassium channel inhibitors, dose response, cell-based, automated electrophysiology, set II, rat KCNQ2 (AID 588637); type: functional
[12] = molecular target: T5, Corticotropin-releasing factor receptor 2/Corticotropin-releasing factor-binding protein (Homo sapiens, UniProt P24387+Q13324); assay: activators of CRF receptor 2 with binding protein – uHTS hits, confirmation (AID 602473); type: functional; settings: read-out: EC50_Mean
T5 sequence (Q13324 whole entry): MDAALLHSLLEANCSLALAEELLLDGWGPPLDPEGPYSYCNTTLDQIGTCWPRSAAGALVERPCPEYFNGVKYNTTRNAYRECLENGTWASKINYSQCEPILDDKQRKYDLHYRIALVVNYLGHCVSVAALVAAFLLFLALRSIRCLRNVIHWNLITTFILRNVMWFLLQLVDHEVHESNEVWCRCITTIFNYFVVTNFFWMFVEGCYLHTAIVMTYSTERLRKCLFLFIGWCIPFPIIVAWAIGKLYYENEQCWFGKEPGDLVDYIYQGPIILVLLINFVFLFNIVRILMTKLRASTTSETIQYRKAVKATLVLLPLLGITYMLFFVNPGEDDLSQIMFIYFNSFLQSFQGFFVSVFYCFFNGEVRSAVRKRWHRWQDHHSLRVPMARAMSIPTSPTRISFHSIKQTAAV
T5 sequence (P24387 whole entry): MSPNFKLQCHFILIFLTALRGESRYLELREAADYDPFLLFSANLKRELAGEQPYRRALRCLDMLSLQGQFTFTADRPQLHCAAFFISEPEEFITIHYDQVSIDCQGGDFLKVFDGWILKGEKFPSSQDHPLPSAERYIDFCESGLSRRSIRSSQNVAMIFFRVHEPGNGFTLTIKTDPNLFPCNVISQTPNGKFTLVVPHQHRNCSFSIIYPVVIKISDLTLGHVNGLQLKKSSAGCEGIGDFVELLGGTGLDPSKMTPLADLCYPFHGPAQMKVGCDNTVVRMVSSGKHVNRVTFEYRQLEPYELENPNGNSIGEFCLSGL

[13] = molecular target: T6, Small ubiquitin-related modifier 1 (Homo sapiens, UniProt P63165); assay: inhibitors of SUMO1 peptide binding, dose response, biochemical, fluorescence polarization, uHTS hits (AID 624382); type: functional; settings: read-out: IC50_Mean
[14] = molecular target: T6, Small ubiquitin-related modifier 1; assay: inhibitors of SUMO1 partner interactions, dose response, biochemical, FRET (AID 624383); type: functional; settings: read-out: IC50_Mean
[15] = molecular target: T7, Small ubiquitin-related modifier 2 (Homo sapiens, UniProt P61956); assay: inhibitors of SUMO2 protein-protein interaction, dose response, selectivity assay for SUMO1 interaction inhibitor project, biochemical, FRET, human SUMO2, uHTS hits (AID 624384); type: functional; settings: read-out: IC50_Mean
[16] = molecular target: T5, Corticotropin-releasing factor receptor 2/Corticotropin-releasing factor-binding protein; assay: Dose Response confirmation of uHTS hits for small molecule antagonists of the CRF-binding protein and CRF-R2 receptor complex.; type: functional; settings: read-out: IC50_Mean
Genome polyprotein = Genome polyprotein (dengue virus type 2, UniProt P29990); assay: Dengue-2 NS5 methyltransferase inhibitors, primary screen, biochemical, confirmation dose response (AID 588689); type: functional
[17] = molecular target: T7, Small ubiquitin-related modifier 2; assay: SUMO2–SIM peptide binding inhibitors, dose response, selectivity assay for SUMO1 interaction inhibitor project, biochemical, fluorescence polarization, uHTS hits (AID 624385); type: functional; settings: read-out: IC50_Mean
Melanocortin receptor 4 = Melanocortin receptor 4 (Homo sapiens, UniProt P32245); type: functional, cell-based;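 also: Cell-based assay with luminescence read-out, confirmatory dose-response testing for agonist activity of biased ligands at MC4R; human U2OS cells with tagged receptor and beta-arrestin; potency of agonists that increase receptor coupling to beta-arrestin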
[18] = AlphaScreen signal interference compounds, dose response, artefact control for ARNT-TACC3 interaction inhibitor project, biochemical, luminescence, cherry-pick (AID 651705); type: functional;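 also: AlphaScreen bead proximity signal that flags compounds interfering with the detection technology; potency reflects signal decrease which marks the compound as an assay artifact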

T7 sequence (P61956 whole entry): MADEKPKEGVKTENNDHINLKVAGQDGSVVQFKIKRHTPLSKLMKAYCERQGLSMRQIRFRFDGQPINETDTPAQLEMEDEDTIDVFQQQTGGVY
T6 sequence (P63165 whole entry): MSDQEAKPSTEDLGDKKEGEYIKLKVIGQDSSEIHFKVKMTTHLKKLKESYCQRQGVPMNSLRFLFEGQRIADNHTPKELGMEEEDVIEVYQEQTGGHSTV
Chain of Intestinal-type alkaline phosphatase (Mus musculus, UniProt P24822) (P24822 whole entry): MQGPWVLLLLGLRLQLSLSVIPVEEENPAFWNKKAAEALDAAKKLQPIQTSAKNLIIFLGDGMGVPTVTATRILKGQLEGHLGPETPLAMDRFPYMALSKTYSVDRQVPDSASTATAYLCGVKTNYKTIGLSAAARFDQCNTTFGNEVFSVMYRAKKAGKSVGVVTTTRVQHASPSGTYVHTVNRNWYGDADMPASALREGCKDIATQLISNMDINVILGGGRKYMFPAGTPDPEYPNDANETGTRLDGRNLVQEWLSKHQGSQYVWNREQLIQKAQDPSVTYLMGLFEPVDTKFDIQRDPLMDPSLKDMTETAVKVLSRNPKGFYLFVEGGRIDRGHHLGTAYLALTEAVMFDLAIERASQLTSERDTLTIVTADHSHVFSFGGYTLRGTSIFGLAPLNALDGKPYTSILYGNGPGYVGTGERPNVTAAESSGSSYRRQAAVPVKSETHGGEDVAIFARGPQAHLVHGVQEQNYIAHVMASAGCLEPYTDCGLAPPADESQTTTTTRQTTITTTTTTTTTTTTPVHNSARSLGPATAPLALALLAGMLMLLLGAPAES
Chain of Intestinal-type alkaline phosphatase (Homo sapiens, UniProt P09923) (P09923 whole entry): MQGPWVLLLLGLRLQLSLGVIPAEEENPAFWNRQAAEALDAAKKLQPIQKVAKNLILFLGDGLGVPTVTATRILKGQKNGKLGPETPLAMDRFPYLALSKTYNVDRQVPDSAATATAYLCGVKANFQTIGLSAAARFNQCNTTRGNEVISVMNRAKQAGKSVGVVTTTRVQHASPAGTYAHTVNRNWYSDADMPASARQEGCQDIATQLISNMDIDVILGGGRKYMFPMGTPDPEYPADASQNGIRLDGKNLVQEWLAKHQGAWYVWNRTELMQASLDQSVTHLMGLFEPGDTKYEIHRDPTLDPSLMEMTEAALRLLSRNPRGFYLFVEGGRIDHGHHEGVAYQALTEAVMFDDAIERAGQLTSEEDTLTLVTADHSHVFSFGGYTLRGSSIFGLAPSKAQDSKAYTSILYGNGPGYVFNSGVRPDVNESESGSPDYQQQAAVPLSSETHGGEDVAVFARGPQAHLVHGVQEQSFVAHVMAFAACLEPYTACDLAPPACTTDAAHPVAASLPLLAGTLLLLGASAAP
Chain of Melanocortin receptor 4 (P32245 whole entry): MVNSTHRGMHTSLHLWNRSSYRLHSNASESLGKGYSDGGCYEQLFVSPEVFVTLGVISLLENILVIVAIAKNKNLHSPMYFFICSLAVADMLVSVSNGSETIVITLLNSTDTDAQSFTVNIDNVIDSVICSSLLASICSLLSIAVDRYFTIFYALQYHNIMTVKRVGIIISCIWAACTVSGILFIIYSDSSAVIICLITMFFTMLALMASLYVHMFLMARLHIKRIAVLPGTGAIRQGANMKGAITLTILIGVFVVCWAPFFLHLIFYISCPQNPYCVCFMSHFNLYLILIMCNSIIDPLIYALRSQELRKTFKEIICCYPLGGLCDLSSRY
Chain of Genome polyprotein (P29990 2492-3391 limits assumed): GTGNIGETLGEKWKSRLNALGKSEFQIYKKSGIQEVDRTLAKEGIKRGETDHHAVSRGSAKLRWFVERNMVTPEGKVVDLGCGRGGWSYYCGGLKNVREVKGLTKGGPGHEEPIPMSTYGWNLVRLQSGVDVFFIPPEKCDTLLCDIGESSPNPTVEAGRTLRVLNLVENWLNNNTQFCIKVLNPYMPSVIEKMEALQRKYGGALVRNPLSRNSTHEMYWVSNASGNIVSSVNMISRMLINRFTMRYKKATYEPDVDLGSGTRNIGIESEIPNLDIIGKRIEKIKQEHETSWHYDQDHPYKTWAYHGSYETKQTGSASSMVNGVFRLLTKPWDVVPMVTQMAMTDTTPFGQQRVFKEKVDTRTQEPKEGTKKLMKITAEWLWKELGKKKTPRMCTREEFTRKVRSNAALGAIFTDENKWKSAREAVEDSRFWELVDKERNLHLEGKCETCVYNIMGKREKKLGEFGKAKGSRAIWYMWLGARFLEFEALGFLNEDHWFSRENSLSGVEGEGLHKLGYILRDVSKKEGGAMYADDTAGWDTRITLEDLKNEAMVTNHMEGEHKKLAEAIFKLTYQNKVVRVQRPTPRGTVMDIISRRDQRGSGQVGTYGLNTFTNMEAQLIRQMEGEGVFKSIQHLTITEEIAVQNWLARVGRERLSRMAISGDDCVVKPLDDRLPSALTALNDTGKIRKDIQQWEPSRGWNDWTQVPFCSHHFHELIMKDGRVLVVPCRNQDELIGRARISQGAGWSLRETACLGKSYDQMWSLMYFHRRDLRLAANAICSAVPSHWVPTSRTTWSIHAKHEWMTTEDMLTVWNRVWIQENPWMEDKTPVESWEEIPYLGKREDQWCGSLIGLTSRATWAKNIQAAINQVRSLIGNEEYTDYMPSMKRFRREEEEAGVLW
Chain of Potassium voltage-gated channel subfamily KQT member 2 (O88943 whole entry): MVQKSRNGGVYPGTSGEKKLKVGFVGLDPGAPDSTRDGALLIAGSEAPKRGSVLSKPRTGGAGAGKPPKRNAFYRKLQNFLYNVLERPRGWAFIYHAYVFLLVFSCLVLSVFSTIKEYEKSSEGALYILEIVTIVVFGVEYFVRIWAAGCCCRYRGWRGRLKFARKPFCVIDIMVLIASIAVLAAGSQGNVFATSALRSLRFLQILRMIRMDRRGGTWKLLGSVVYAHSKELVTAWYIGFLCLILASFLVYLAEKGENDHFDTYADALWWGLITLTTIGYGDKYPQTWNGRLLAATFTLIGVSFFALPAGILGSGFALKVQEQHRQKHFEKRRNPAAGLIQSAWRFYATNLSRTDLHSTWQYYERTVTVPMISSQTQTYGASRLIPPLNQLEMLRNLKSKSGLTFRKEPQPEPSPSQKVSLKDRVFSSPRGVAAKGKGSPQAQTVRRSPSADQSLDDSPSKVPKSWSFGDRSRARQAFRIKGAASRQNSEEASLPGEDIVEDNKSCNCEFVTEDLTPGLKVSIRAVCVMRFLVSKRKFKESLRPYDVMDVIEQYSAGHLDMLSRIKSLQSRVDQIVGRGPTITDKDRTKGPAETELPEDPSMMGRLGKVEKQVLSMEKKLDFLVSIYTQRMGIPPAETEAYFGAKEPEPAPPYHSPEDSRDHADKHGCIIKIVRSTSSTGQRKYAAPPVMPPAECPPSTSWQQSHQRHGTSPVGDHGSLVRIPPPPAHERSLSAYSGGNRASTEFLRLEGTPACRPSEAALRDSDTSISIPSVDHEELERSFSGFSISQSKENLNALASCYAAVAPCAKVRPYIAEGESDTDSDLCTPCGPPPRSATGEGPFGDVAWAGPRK

For C#CCOCCOCCOCCNc1nc(N2CCN(C(=O)CCCCCCCCCCNC(=O)Cn3cc(CCCCCN)nn3)CC2)nc(N2CCN(C(=O)CCCCCCCCCCNC(=O)[C@@H](CCSC)n3cc(CCO)nn3)CC2)n1, which IC50 [1] is on record?
Its IC50 is > 100 µM (inactive).

And the IC50 [2]?
Its IC50 is 6.92 µM (active).

What about the EC50 (Insulin-degrading enzyme [3]) of the same compound?
The EC50 was > 6.08 µM (active).

And the EC50 (HEK293 [4])?
The EC50 was > 54.7 µM (inactive).

And the IC50 [5]?
Its IC50 is > 100 µM (inactive).

What about the EC50 (Insulin-degrading enzyme [6]) of the same compound?
Its EC50 is > 54.7 µM (inactive).

And the IC50 (Bcl-2-related protein A1)?
The IC50 was 18.5 µM (active).

What about the IC50 [7] of the same compound?
The IC50 was 4.6 µM (active).

What about the IC50 (HEK293 [8]) of the same compound?
The IC50 was 14.5 µM (inactive).

And the IC50 [9]?
The IC50 was 6.59 µM (active).

For Cc1nnc(N/N=C/c2ccc(-c3ccc(Br)cc3)o2)n1N, which AC50 [10] is on record?
Its AC50 is 127 µM (active).

What about the IC50 (cells) of the same compound?
The IC50 was 9.58 µM (active).

For COc1ccccc1CNC(=O)C(CC(C)C)NC(=O)C1CCC(C)CC1 (configuration not stated), which IC50 [11] is on record?
The IC50 was 0.21 µM (active).

What does the source list for O=C(Nc1cc(C(=O)Nc2ccccc2C(=O)O)cc(C(=O)Nc2ccccc2C(=O)O)c1)c1ccccc1?
EC50 [12]: > 53 µM (inactive); IC50 [13]: 1.19 µM (active); IC50 [14]: 7.45 µM (active); IC50 [15]: 10.7 µM (active); IC50 [16]: > 47.1 µM (inactive); IC50 (Genome polyprotein): 12.7 µM (active); IC50 [17]: 4.03 µM (active)

With Cc1ccc(C(=O)Nc2nc(C(N)Cc3ccc(C(F)(F)F)cc3)cs2)cc1 (configuration not stated) as the compound, how does the EC50 (Melanocortin receptor 4) read?
Its EC50 is > 89.2 µM (inactive).

With COc1ccc(CCNC(=O)C23CCC(C)(C(=O)C2Br)C3(C)C)cc1OC (configuration not stated) as the compound, how does the AC50 [18] read?
Its AC50 is 129 µM (active).
